In patent EP0260814B1, “Dopamine-Beta-hydroxylase inhibitors” (SMITHKLINE BEECHAM CORPORATION, priority 1986, dated 1988):

Legend:
DBH [1] = biological target: T1, DBH (Homo sapiens, UniProt P09172); test: in vitro DBH inhibition: conversion of tyramine to octopamine in the presence of DBH, absorbance at 330 nm; format: biochemical
T1 sequence (P09172 1-617): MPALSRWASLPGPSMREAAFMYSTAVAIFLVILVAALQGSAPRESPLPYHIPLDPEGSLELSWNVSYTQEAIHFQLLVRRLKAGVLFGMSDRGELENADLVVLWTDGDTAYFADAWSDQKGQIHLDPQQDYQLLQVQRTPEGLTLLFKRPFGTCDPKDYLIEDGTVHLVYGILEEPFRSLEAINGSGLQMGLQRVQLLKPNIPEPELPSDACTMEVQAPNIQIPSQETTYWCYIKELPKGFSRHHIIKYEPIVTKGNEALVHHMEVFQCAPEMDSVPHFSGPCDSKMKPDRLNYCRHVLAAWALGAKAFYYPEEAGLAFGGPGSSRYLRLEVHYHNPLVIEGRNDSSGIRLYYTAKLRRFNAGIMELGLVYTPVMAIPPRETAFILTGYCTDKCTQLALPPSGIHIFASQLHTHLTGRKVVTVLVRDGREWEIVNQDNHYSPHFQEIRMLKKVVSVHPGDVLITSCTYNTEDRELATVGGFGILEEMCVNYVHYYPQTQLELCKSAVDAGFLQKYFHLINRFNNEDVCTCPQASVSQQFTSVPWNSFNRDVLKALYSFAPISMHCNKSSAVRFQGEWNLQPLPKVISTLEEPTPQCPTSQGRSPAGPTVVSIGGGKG
Method: Octopamine was assayed following sodium periodate oxidation to p-hydroxybenzaldehyde by measuring spectrophotometric absorbance at 330 nm. […] Melting points (mp) are given in °C. […]

[2] = study comparing effects on blood pressure of hydroxy compounds and their methoxy analogues; format: in vivo; details: for blood pressure reductions: equivalent doses of hydroxy compound and methoxy analogue
From the text: In a study conducted to compare the effects on blood pressure of compounds wherein Y is -OH, X is 3-F or 3,5-F₂ and n is 1 to their Y is -OCH₃ analogues, the maximum blood pressure reduction observed after administration of the hydroxy compound in which X is 3-F was 18%, whereas one-half the dose of its methoxy analogue produced a 35% blood pressure reduction. Also, equivalent doses of the compound in which Y is -OH, X is 3,5-F₂, and n is 1 and its Y is -OCH₃ analogue produced, respectively, 20% and 35% blood pressure reductions.

DBH [3] = biological target: T1, DBH; details: reported by Runti et al.; cited from earlier work
[4] = test system: peripheral dopamine and norepinephrine levels; test: effects on peripheral dopamine and norepinephrine levels (procedure of DaPrada and Zürcher); format: in vivo, Spontaneously hypertensive rats
Method: Spontaneously hypertensive rats were dosed twice, the second dose being about 18 hr after the first, and were sacrificed about 2 hr after the second dose. […] In Table II, R= -H, Y= -OH and n=1; in Table II A, R= -H, Y= -OCH₃, and n=1.

**Q.** For Oc1ccc(Cn2ccnc2S)cc1F [n=1, X=3-F, Y=OH, R=H], which IC50 (DBH [1]; molar concentration of compound at which DBH activity was halved, read-out: IC₅₀) is on record?
**A.** 1400 nM

**Q.** And the “maximum blood pressure reduction” value ([2]; after administration of the hydroxy compound, dose not given)?
**A.** 18%

**Q.** Which “inhibitory activity relative to fusaric acid” value (DBH [3]) does the source give for O=C(O)c1ccc(Cc2ccc(O)cc2)cn1 [phenypicolinic acid] here?
**A.** twice the inhibitory activity of fusaric acid

**Q.** Which inhibition at 100 µM (DBH [1]; at 10⁻⁴ molar concentration) does the source give for COc1ccc(Cn2ccnc2S)cc1F [Example 5, 1-(3-Fluoro-4-methoxybenzyl)-2-mercaptoimidazole] here?
**A.** 67%

**Q.** And the blood pressure reduction ([2]; one-half the dose of the hydroxy compound in which X is 3-F)?
**A.** 35%

**Q.** For Oc1c(F)cc(Cn2ccnc2S)cc1F [n=1, X=3,5-F₂, Y=OH, R=H], which “DA/NE Ratio” value ([4]; Table II (for X= compounds: R= -H, Y= -OH, n=1), 50 mg/kg, dosed twice) is on record?
**A.** .0824 .0128^(2)

**Q.** And the “DA (µg/g)” value ([4]; Table II (for X= compounds: R= -H, Y= -OH, n=1), 50 mg/kg, dosed twice, sacrificed about 2 hr after second dose)?
**A.** .708 .068^(1) µg/g

**Q.** What about the blood pressure reductions ([2]; dose not given) of the same compound?
**A.** 20%

**Q.** For COc1c(F)cc(Cn2ccnc2S)cc1F [Example 6, 1-(3,5-Difluoro-4-methoxybenzyl)-2-mercaptoimidazole], which “DA/NE Ratio” value ([4]; Table IIA (R= -H, Y= -OCH₃, n=1), dose not given) is on record?
**A.** .204^(1)

**Q.** What about the “DA” value ([4]; Table IIA (R= -H, Y= -OCH₃, n=1), dose not given, dosed twice, sacrificed about 2 hr after second dose) of the same compound?
**A.** 1.178 ± .087 µg/g

**Q.** And the blood pressure reductions ([2]; dose not given)?
**A.** 35%
